Test results reported in patent publication US11084786B2, “Compounds and pharmaceutical composition associated with ubiquitination-proteasome system” (CALGENT BIOTECHNOLOGY CO., LTD., priority 2015, dated 2021).

How the values were obtained:
Assay type in all cases: cell-based
HL-60 = experiment: Growth inhibition assay (MTT), HL-60; conditions: Homo sapiens, HL-60 cells, 48 hours exposure, read-out: HL-60 IC50 (μM) Mean ± S.E.
Protocol: (§1) Antiproliferative Activity Against Human Normal and Cancer Cell Lines Using Growth Inhibition Assay (GI50)
(§2) The compounds of the invention were subjected to growth inhibition assay. Cells were seeded in 96-well plastic plates and exposed to MPT0L132, MPT0L133, and MPT0L134 for 48 hours. Cell viability was assessed using the 3-(4,5-dimethylthiazol-2-yl)-2,5-diphenyltetrazolium bromide assay. Growth inhibition was expressed as the percentage of surviving cells in drug-treated versus DMSO-treated control cells.

HCT-116 = experiment: Growth inhibition assay (MTT), HCT-116; conditions: Homo sapiens, HCT-116 cells, 48 hours exposure, read-out: HCT-116 GI50 (μM) Mean ± S.E.
Protocol: as §1, §2

MDA-MB-231 = experiment: Growth inhibition assay (MTT), MDA-MB-231; conditions: Homo sapiens, MDA-MB-231 cells, 48 hours exposure, read-out: MDA-MB-231 GI50 (μM) Mean ± S.E.
Protocol: as §1, §2

Hep3B = experiment: Growth inhibition assay (MTT), Hep3B; conditions: Homo sapiens, Hep3B cells, 48 hours exposure, read-out: Hep3B GI50 (μM) Mean ± S.E.
Protocol: as §1, §2

Compound: CN(C)CCNC(=O)c1ccc(CNC2=C(Cl)C(=O)c3ccccc3C2=O)cc1 [MPT0L132, 4-(((3-chloro-1,4-dioxo-1,4-dihydronaphthalen-2-yl)amino)methyl)-N-(2-(dimethylamino)ethyl)benzamide]
- IC50 (HL-60): 2.5 ± 0.15 µM
- GI50 (HCT-116): 3.69 ± 0.24 µM
- GI50 (MDA-MB-231): 10 to 30 µM
- GI50 (Hep3B): 10 to 30 µM

Compound: O=C(NCCN1CCCC1)c1ccc(CNC2=C(Cl)C(=O)c3ccccc3C2=O)cc1 [MPT0L133, 4-(((3-chloro-1,4-dioxo-1,4-dihydronaphthalen-2-yl)amino)methyl)-N-(2-(pyrrolidin-1-yl)ethyl)benzamide]
- IC50 (HL-60): 1.67 ± 0.27 µM
- GI50 (HCT-116): 4.04 ± 0.65 µM
- GI50 (MDA-MB-231): 10 to 30 µM
- GI50 (Hep3B): 10 to 30 µM

Compound: CCN(CC)CCNC(=O)c1ccc(CNC2=C(Cl)C(=O)c3ccccc3C2=O)cc1 [MPT0L134, 4-(((3-chloro-1,4-dioxo-1,4-dihydronaphthalen-2-yl)amino)methyl)-N-(2-(diethylamino)ethyl)benzamide]
- IC50 (HL-60): 2.52 ± 0.12 µM
- GI50 (HCT-116): 3.53 ± 0.24 µM
- GI50 (MDA-MB-231): 10 to 30 µM
- GI50 (Hep3B): 10 to 30 µM
